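A five-concentration, 48-hour dose response in 96-well plates underlies each endpoint, interpolated linearly between surrounding concentrations. GI50 = concentration required for 50% inhibition of growth.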 Active and inactive are the calls of the source. Rule as the data show it: active = GI50 up to about 1.1 µM and inactive = higher.
Assays:
Assay in all cases: DTP human tumour cell line panel, 48 h
[1] = system: 786-0
[2] = system: CCRF-CEM
[3] = system: HCT-15
[4] = system: HL-60
[5] = system: HT-29
[6] = system: K562
[7] = system: KM12
[8] = system: Malme-3M
[9] = system: NCI-H226
[10] = system: NCI-H460
[11] = system: NCI-H522
[12] = system: OVCAR-4
[13] = system: SF-295
[14] = system: SK-OV-3
[15] = system: SW-620
[16] = system: U-251
[17] = system: SR

SMILES | GI50 [1] | GI50 [2] | GI50 [3] [µM] | GI50 [4] | GI50 [5] | GI50 [6] | GI50 [7] | GI50 [8] | GI50 [9] | GI50 [10] | GI50 [11] | GI50 [12] | GI50 [13] | GI50 [14] | GI50 [15] | GI50 [16] | GI50 [17]
CC1(C)C(=O)OC(n2cc(F)c(=O)[nH]c2=O)C1=O (stereo unspecified) | > 100 µM (inactive) | > 100 µM (inactive) | > 100 | > 100 µM (inactive) | > 100 µM (inactive) | > 100 µM (inactive) | > 100 µM (inactive) | > 100 µM (inactive) | > 100 µM (inactive) | 55.1 µM (inactive) | > 100 µM (inactive) | > 100 µM (inactive) | > 100 µM (inactive) | > 100 µM (inactive) | > 100 µM (inactive) | > 100 µM (inactive) | 
Cc1ccc(C2=Nc3ccccc3NC(=O)C2)cc1 | 77.8 µM (inactive) | 38 µM (inactive) | > 100 | 51.2 µM (inactive) | > 100 µM (inactive) | > 100 µM (inactive) | > 100 µM (inactive) | > 100 µM (inactive) | 12.7 µM (inactive) | > 100 µM (inactive) | 98.4 µM (inactive) | > 100 µM (inactive) | > 100 µM (inactive) | > 100 µM (inactive) | 27.7 µM (inactive) | 32.2 µM (inactive) | > 100 µM (inactive)
COc1ccc(-c2cc(O)c3cc4c(cc3n2)OCO4)cc1 | 73.1 µM (inactive) | > 100 µM (inactive) | > 100 | > 100 µM (inactive) | > 100 µM (inactive) | > 100 µM (inactive) |  | > 100 µM (inactive) | 29 µM (inactive) | > 100 µM (inactive) |  | > 100 µM (inactive) | 63.4 µM (inactive) |  | > 100 µM (inactive) | > 100 µM (inactive) | > 100 µM (inactive)
CC1CC2OC(=O)CC2C[C@@H]1O[Si](C)(C)C(C)(C)C (stereo partly specified) | 80.9 µM (inactive) | 36.8 µM (inactive) | 54.5 | 20.6 µM (inactive) | 40.5 µM (inactive) | 36.1 µM (inactive) | 44.3 µM (inactive) | 65.3 µM (inactive) |  | 75.7 µM (inactive) |  | 61 µM (inactive) | 58.7 µM (inactive) | > 100 µM (inactive) | > 100 µM (inactive) |  | 
COc1ccc(/C=C2\Cc3ccccc3C2=O)cc1OC | > 100 µM (inactive) | > 100 µM (inactive) | > 100 |  | > 100 µM (inactive) | > 100 µM (inactive) | > 100 µM (inactive) | > 100 µM (inactive) |  | > 100 µM (inactive) | 70.6 µM (inactive) | > 100 µM (inactive) | 60.8 µM (inactive) | > 100 µM (inactive) | > 100 µM (inactive) | > 100 µM (inactive) | 
C=CC1[C@H]2COC(C)(C)O[C@@H]2CC(=O)C1(C)C (stereo partly specified) | 72.9 µM (inactive) |  |  | > 100 µM (inactive) | > 100 µM (inactive) |  | > 100 µM (inactive) | > 100 µM (inactive) | > 100 µM (inactive) | > 100 µM (inactive) | > 100 µM (inactive) | > 100 µM (inactive) | > 100 µM (inactive) |  | > 100 µM (inactive) | > 100 µM (inactive) | 
CC1CC(c2ccc([N+](=O)[O-])cc2)=Nc2ccccc2[S+]1[O-] (stereo unspecified) |  | 11 µM (inactive) | 14.6 | 15.1 µM (inactive) | 12.9 µM (inactive) | 17.5 µM (inactive) | 13 µM (inactive) |  | 29.2 µM (inactive) | 17.1 µM (inactive) | 12.2 µM (inactive) | 21.6 µM (inactive) | 21.4 µM (inactive) | 23 µM (inactive) | 15.3 µM (inactive) | 13.6 µM (inactive) | 22.5 µM (inactive)
COC(=O)C(Cc1nc2ccccc2nc1O)/C(=N\NC(C)(C)C)C(=O)Nc1c(C)cc(Br)cc1C (stereo unspecified) | 17.5 µM (inactive) | 17.8 µM (inactive) | 23.4 |  | 30.5 µM (inactive) | 29.4 µM (inactive) | 41 µM (inactive) | 27.6 µM (inactive) | 17.6 µM (inactive) | 30.1 µM (inactive) | 15.1 µM (inactive) | 34.8 µM (inactive) | 35.3 µM (inactive) | 50.5 µM (inactive) | 35.2 µM (inactive) | 19.2 µM (inactive) | 20.5 µM (inactive)
N#CC1(Cc2ccccc2)CCCCN1C(=O)c1ccccc1 (stereo unspecified) | > 100 µM (inactive) | > 100 µM (inactive) | > 100 | 45.2 µM (inactive) | > 100 µM (inactive) | > 100 µM (inactive) | > 100 µM (inactive) | > 100 µM (inactive) |  | > 100 µM (inactive) |  | > 100 µM (inactive) | > 100 µM (inactive) | > 100 µM (inactive) | > 100 µM (inactive) | > 100 µM (inactive) | 44.7 µM (inactive)
CCNC(=O)OCc1c(COC(=O)NCC)c(-c2ccc(Cl)c(Cl)c2)n2c1CCC2 | 8.63 µM (inactive) | 4.09 µM (inactive) | 13.6 | 3.24 µM (inactive) | 18.3 µM (inactive) | 8.61 µM (inactive) | 25.9 µM (inactive) | 16.6 µM (inactive) | 1.75 µM (inactive) | 4.61 µM (inactive) | 6.58 µM (inactive) | 15.2 µM (inactive) | 11.7 µM (inactive) |  | 13.8 µM (inactive) | 10.5 µM (inactive) | 3.21 µM (inactive)
C#CCCCCC#Cc1ccccc1C(=O)OC |  | 2.91 µM (inactive) | 63.8 | 10.2 µM (inactive) | 30.5 µM (inactive) | 9.93 µM (inactive) | 58.2 µM (inactive) | 77.6 µM (inactive) | 43.5 µM (inactive) | > 100 µM (inactive) |  | 58.9 µM (inactive) | 37.3 µM (inactive) | > 100 µM (inactive) | 21.1 µM (inactive) | 65.6 µM (inactive) | 2.28 µM (inactive)
CC1(C2CCC3(C)C(C2)C3Sc2ccccc2)OCCO1 (stereo unspecified) | 15.1 µM (inactive) | 17.9 µM (inactive) | 31.9 | 12.1 µM (inactive) | 17.5 µM (inactive) | 17.1 µM (inactive) | 25.6 µM (inactive) | 18.3 µM (inactive) |  | 20.4 µM (inactive) | 18.9 µM (inactive) | 31.3 µM (inactive) | 21.5 µM (inactive) | 33 µM (inactive) | 21.5 µM (inactive) | 19.8 µM (inactive) | 
C[C@@H]1C[C@H]2[C@@H]3CCC4=CC(=O)C=C[C@]4(C)[C@@]3(F)[C@@H](O)C[C@]2(C)[C@@]1(O)C(=O)CO [DEXAMETHASONE] | > 100 µM (inactive) | 0.0239 µM (active) | > 100 | > 100 µM (inactive) | > 100 µM (inactive) | > 100 µM (inactive) | > 100 µM (inactive) | > 100 µM (inactive) | > 100 µM (inactive) |  | > 100 µM (inactive) | > 100 µM (inactive) |  | > 100 µM (inactive) | > 100 µM (inactive) |  | 49.3 µM (inactive)
Cc1cc2c(=O)c3ccccc3[nH]c2c(C(N)=O)c1C | > 100 µM (inactive) | > 100 µM (inactive) | > 100 |  | > 100 µM (inactive) | > 100 µM (inactive) | > 100 µM (inactive) | > 100 µM (inactive) | > 100 µM (inactive) | > 100 µM (inactive) | > 100 µM (inactive) | > 100 µM (inactive) | > 100 µM (inactive) | > 100 µM (inactive) | > 100 µM (inactive) | > 100 µM (inactive) | 
Nc1nc(N)c(CCCCc2ccccc2)c(C=O)n1 | 15 µM (inactive) | 10.6 µM (inactive) | 14.7 |  | 9.62 µM (inactive) | 5.81 µM (inactive) | 15.9 µM (inactive) | 18.1 µM (inactive) | 19.4 µM (inactive) | 42.1 µM (inactive) |  | 23.9 µM (inactive) | 22 µM (inactive) | 31.1 µM (inactive) | 11.7 µM (inactive) | 22.9 µM (inactive) | 
CSC1NC=Nc2c1sc(=S)n2-c1ccccc1 (stereo unspecified) | > 100 µM (inactive) |  | > 100 |  | > 100 µM (inactive) |  | > 100 µM (inactive) | > 100 µM (inactive) | > 100 µM (inactive) | > 100 µM (inactive) | > 100 µM (inactive) | 89.1 µM (inactive) | > 100 µM (inactive) | > 100 µM (inactive) | > 100 µM (inactive) | > 100 µM (inactive) | > 100 µM (inactive)
C=C1C(=O)O[C@H]2C[C@@H](C)[C@@H]3CC(=O)OC[C@@]3(C)CC12 (stereo partly specified) | 21.2 µM (inactive) | 12.9 µM (inactive) | 29.4 |  | 17.5 µM (inactive) | 17.5 µM (inactive) | 20.5 µM (inactive) | 17.9 µM (inactive) |  | 18.8 µM (inactive) | 3.56 µM (inactive) | 22.8 µM (inactive) | 21.6 µM (inactive) | 97.7 µM (inactive) | 16.7 µM (inactive) | 97.3 µM (inactive) | 
O=C1N=C2N=C(c3ccc(Cl)cc3)N(c3ccc(Cl)cc3)N2Sc2ccccc21 | > 100 µM (inactive) | > 100 µM (inactive) | > 100 | > 100 µM (inactive) | > 100 µM (inactive) | > 100 µM (inactive) | 83.9 µM (inactive) | > 100 µM (inactive) | > 100 µM (inactive) | 81.3 µM (inactive) | > 100 µM (inactive) | > 100 µM (inactive) | 64.6 µM (inactive) | > 100 µM (inactive) | > 100 µM (inactive) | 23.5 µM (inactive) | 
NC1=NC(c2ccccc2)CC(c2cc(Cl)ccc2O)=N1 (stereo unspecified) | 16.1 µM (inactive) | 22.1 µM (inactive) |  | 16.1 µM (inactive) | 17.5 µM (inactive) | 10.1 µM (inactive) | 13.7 µM (inactive) | 21.8 µM (inactive) | 21.2 µM (inactive) | 15.5 µM (inactive) | 15.5 µM (inactive) | 17.9 µM (inactive) | 17.3 µM (inactive) | 17.9 µM (inactive) | 14.1 µM (inactive) | 16.3 µM (inactive) | 15.8 µM (inactive)
